Results on 4 molecules are retold here after paper PMC7519074, “Polar functional group-containing glycolipid CD1d ligands modulate cytokine-biasing responses and prevent experimental colitis” (Scientific Reports, 2020).

Data set [1] concerns DSS-induced colitis. Also noted: method as in PMID 15674111. The settings on record: cited from earlier work.
Data set [2] deals with T1, mCD1d-Fc fusion protein (Mus musculus, UniProt P11609).
T1 construct: Ig (mouse immunoglobulin fusion partner); purchased BD Biosciences
T1 sequence (P11609 22-305 limits assumed): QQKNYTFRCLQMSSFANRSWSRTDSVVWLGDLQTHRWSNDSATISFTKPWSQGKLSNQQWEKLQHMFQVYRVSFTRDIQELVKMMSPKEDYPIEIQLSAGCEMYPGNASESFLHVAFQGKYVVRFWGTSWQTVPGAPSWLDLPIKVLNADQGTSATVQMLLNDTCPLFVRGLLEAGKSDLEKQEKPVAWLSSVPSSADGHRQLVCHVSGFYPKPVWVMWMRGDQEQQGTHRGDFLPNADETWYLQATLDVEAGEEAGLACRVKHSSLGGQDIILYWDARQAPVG
T1 sequence (P01887 21-119 partner): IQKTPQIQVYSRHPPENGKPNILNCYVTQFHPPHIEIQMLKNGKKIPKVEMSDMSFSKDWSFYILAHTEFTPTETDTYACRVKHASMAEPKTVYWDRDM
Set-up: method as in PMID 27648599. The settings on record: previously reported; cited from earlier work.

Data set [3] concerns DSS-induced colitis. In words: DSS-induced colitis model of ulcerative colitis. The class given is in vivo. The following applies: for DAI scores (disease activity index) versus PBS control / colon length (colon shortening) versus PBS control: 100 μg/kg ip on day 4, 2.0% DSS day 1-7, read on day 8. As to the method:
DSS treatment causes progressive weight loss, diarrhea and colon inflammation with a significant reduction in colon length, which leads to increases in the clinical scores of disease symptoms (DAI: disease activity index). C57BL/6 mice (n = 12 per group) were continuously treated with 2.0% DSS in their drinking water from day 1 to day 7. The mice were injected intraperitoneally with 100 μg/kg of the derivatives or PBS (control) on day 4. On day 8, the DAI scores and colon lengths of the mice administered the derivatives were compared with those of the mice administered PBS (control). […] Colon shortening is a feature of colon inflammation in the DSS-induced model. In the model, the colon length of healthy mice is about 8 cm (DSS (−)), whereas that of mice upon DSS treatment is about 4 cm (DSS + PBS) as shown in Fig. 7b. […] In this study, we selected the intraperitoneal injection as the administration method of lipid ligands, and used DAI scores and colon length to investigate the protective effects of derivatives against colitis. On the other hand, the difference in the administration method of immunomodulators, such as lipid ligands, might have a significant impact on their efficacy[46],[47]. In addition, the cytokine profiles in the colon upon ligand treatment could also provide useful information regarding their efficacy. Further research is currently being conducted into the effects of administration methods on efficacy and the examination of colon cytokine profiles.
The animal experiments using murine DSS model were conducted in accordance with the guidelines of Keio university institutional animal care and use committee. Specific pathogen-free C57BL/6 mice were purchased from Japan Clea (Tokyo, Japan). All mice were housed under specific pathogen-free conditions in microisolator cages in an animal facility, and male mice (7 weeks of age) were used. DSS (dextran sulfate sodium) was added to the water supply provided to the animals at a concentration of 2.0% (wt/vol) for days 1–7. Derivatives 2 and 3 were first dissolved in DMSO at 100 μg/mL and then diluted in PBS solution. The derivatives (100 μg/kg in 200 μL of solution) were injected intraperitoneally on day 4 after the induction of colitis. Control animals received 200 μL of PBS solution containing the same concentration of DMSO. Mice were sacrificed on day 8 after DSS administration. Intestinal tissues were removed and opened longitudinally. The length of the colon was measured after exclusion of cecum. The disease activity index (DAI), defined as stool blood, stool form and weight loss, and the length of the colon were used to analyze the therapeutic benefits of derivatives 2 and 3.

A short description of data set [4]: Metabolic stability, human liver microsome. The settings on record: for half-life: liver microsomes, read-out: metabolic stability (liver microsome, T1/2) human. The class given is in vitro ADME. In general terms: Liver microsomes are a subcellular fraction often used to study metabolism.
The nature of data set [5]: Water solubility. The class given is physicochemical.
The subject of data set [6] is mouse splenocytes. In words: Cytokine secretion assay using mouse splenocyte. The class given is cell-based, C57BL/6 mice. Also noted: IFN-γ production / IL-4 production / IL-17A production: unit not given here. The following applies: for IFN-γ production / IL-4 production / IL-17A production: 1 nM ligand, 48 h; for IFN-γ production: Fig. S2a; for IL-4 production: Fig. S2b; for IL-17A production: Fig. S2c; for Relative ratio IL-4/IFN-γ of cytokine production compared to α-GalCer / Relative ratio IL-17A/IFN-γ of cytokine production compared to α-GalCer: 1 nM; for Relative ratio IL-4/IFN-γ of cytokine production compared to α-GalCer: Fig. 5a; for Relative ratio IL-17A/IFN-γ of cytokine production compared to α-GalCer: Fig. 5b; for cytokine polarization in words: from relative ratios, Fig. 5. The procedure:
Spleen cell suspensions (from C57BL/6 mice) were prepared in complete medium (RPMI 1,640 media supplemented with 10% FBS and 1% penicillin–streptomycin) and seeded into 96-well plates (6.0 × 10^5 cells/well). Lipid ligands were added, and the mixture were incubated at 37 °C for 48 h. IFN-γ, IL-4 and IL-17A release were measured with an ELISA kit (Affymetrix).

A short description of data set [7]: Metabolic stability, rat liver microsome. The class given is in vitro ADME. The following applies: for half-life: liver microsomes, read-out: metabolic stability (liver microsome, T1/2) rat.
Data set [8] in a line: Plasma pharmacokinetic profile in mice after ip dosing. The class given is in vivo, C57BL/6J mice. The settings on record: male, C57BL/6, mouse, 100 ug/kg, 100 μg/kg ip, mice n = 6. As to the method:
The pharmacokinetic study was approved by The Institutional Animal Care and Use Committee of Ono Pharmaceutical Co., Ltd. and was performed in accordance with the ethics criteria contained in the animal welfare bylaws of the Committee. The pharmacokinetics of 3 were studied following intraperitoneal administration. The 10 μg/mL dosing solution, which contained DMSO/Phosphate buffered saline = 1/9, was administered intraperitoneally to six male C57BL/6 mice (Charles River Laboratories, Japan, Inc.). Blood samples were collected into heparinized syringes at designated times and centrifuged to obtain the plasma samples. The plasma samples were assayed after protein precipitation by acetonitrile/ethanol (70/30, v/v), followed by HPLC/MS/MS analysis. Plasma concentration–time data were analyzed by noncompartmental methods.

Data set [9] deals with T1, mCD1d-Fc fusion protein. The experiment in a line: Antigen presenting cell (APC)-free assay for lipid binding to mCD1d-Fc; IL-2 release by 2E10 NKT hybridoma cells. The class given is cell-based. Also noted: unit not given here. The following applies: ligand 100 nM; mean ± SEM; Fig. 3c, d. As to the method: NKT hybridoma 2E10 cells were cultured in RPMI-1640 (NACALAI TESQUE, INC) supplemented with 10% fetal bovine serum (FBS; Biowest), and 1% penicillin–streptomycin (Gibco).
For this assay, 96-well microplates (Bio-one 96-well cell culture plate, Greiner) were coated with mouse CD1d:Ig Fusion protein (BD Biosciences) (0.25 μg/well) in PBS at 37 °C for 24 h. […] After washing, 2E10 NKT hybridoma cells (2.5 × 10^5 cells/well) were added and cultured at 37 °C for 48 h. IL-2 release was measured with an ELISA kit (Affymetrix).

[10] abbreviates: Table S1, dash = below the detection limit (< 5 μM) according to b25.

SMILES strings stand for the structures. In brackets after ≈: the same amount, converted by molar mass. Entries after “also recorded” stand apart in the source; their conditions may differ.

As to `CCCCCCCCCCCCCCCCCCCCCCCC(=O)N[C@@H](COC1OC(CO)C(O)C(O)C1O)[C@H](O)[C@H](O)CCCCC` (stereo partly drawn) [OCH], the “efficacy in the murine DSS model, in words” value in data set [1] is “effective in the murine DSS model”.

Consider `CCCCCCCCCCCCCC[C@@H](O)[C@@H](O)[C@H](CO[C@H]1O[C@H](CO)[C@H](O)[C@H](O)[C@H]1O)NC(=O)CCCCCCCCCCCNC(=O)CCCCCCCNC(=O)CC` [compound 2], for which the “cytokine production / agonistic activity relative to α-GalCer, in words” value in data set [2] is listed as “higher levels of cytokine production relative to that caused by α-GalCer”. Also, the “mice died by day 8” value in [3] (100 μg/kg ip on day 4, 2.0% DSS day 1-7, n = 12 per group) is on record as “Two out of twelve”. In data set [3], the “DAI scores (disease activity index) versus PBS control” value is “did not significantly alter the DAI scores” and the “colon length (colon shortening) versus PBS control” value was “significantly prevented the colon shortening”. In addition, the half-life in data set [4] is below 0.25 h. In data set [5] (setting [10]), the solubility is below 5 µM. Also, in data set [6], the IFN-γ production is listed as 9,467 ± 362, the IL-4 production was found to be 593 ± 65, the IL-17A production is reported as 5,179 ± 154 and the “Relative ratio IL-4/IFN-γ of cytokine production compared to α-GalCer” value was 3.15 ± 0.46. Besides, in data set [6], the “Relative ratio IL-17A/IFN-γ of cytokine production compared to α-GalCer” value was determined as 2.98 ± 0.03 and the “cytokine polarization in words” value is “relatively less selective cytokine responses”. In data set [7], the “metabolic stability in words” value is listed as “resistant to rat microsomal metabolism” and the half-life was found to be 1.07 h.

Take `CCCCCCCCCCCCCC[C@@H](O)[C@@H](O)[C@H](CO[C@H]1O[C@H](CO)[C@H](O)[C@H](O)[C@H]1O)NC(=O)CCCCCCCCCCCNC(=O)c1ccccc1` [compound 3]: in data set [2], the “cytokine production / agonistic activity relative to α-GalCer, in words” value was “higher levels of cytokine production relative to that caused by α-GalCer; also recorded: higher agonistic activity than α-GalCer”. Besides, in data set [3], the “DAI scores (disease activity index) versus PBS control” value is given as “significant improvement in the DAI scores” and the “colon length (colon shortening) versus PBS control” value is listed as “significantly prevented the colon shortening”. Moreover, in data set [4], the “metabolic stability in words” value is given as “suboptimal metabolic property for human liver microsome” and the half-life is below 0.25 h. The same molecule returned a solubility in data set [5] (detection limit 5 μM) of 7.2 µM (≈ 5.62 µg/mL). Also, in [6], the IFN-γ production is given as 514 ± 79, the IL-17A production worked out at 1651 ± 127, the “Relative ratio IL-4/IFN-γ of cytokine production compared to α-GalCer” value is 10.2 ± 1.6 and the “Relative ratio IL-17A/IFN-γ of cytokine production compared to α-GalCer” value is given as 18.0 ± 1.7. In addition, in [6], the “cytokine polarization in words” value was “IL-4- and IL-17A-biasing properties”. Besides, in [8], the highest concentration (Cmax) is 92.8 ng/mL, the Tmax was 1 h and the half-life is 5.2 h. The AUC in data set [8] (ip) came out at 466 ng·h/mL. In data set [7], the “metabolic stability in words” value was “resistant to rat microsomal metabolism” and the half-life amounted to 2.82 h.

In the case of `CCCCCCCCCCCCCCCCCCCCCCCCCC(=O)N[C@@H](CO[C@H]1O[C@H](CO)[C@H](O)[C@H](O)[C@H]1O)[C@H](O)[C@H](O)CCCCCCCCCCCCCC` [α-GalCer, α-galactosyl ceramide, reference compound], in [1], the “efficacy in the murine DSS model, in words” value is recorded as “effective in the murine DSS model”. This molecule also came in with a solubility in data set [5] (setting [10]) below 5 µM. This molecule gave a solubility in data set [5] (detection limit 5 μM) below 5 µM. Besides, in data set [6], the IFN-γ production is 12,297 ± 61, the IL-4 production is on record as 247 ± 14 and the IL-17A production is reported as 2,258 ± 242. This molecule had an IL-2 production in [9] of 274 ± 53.

For orientation: solubility means the concentration that dissolves in the medium under given conditions. Usually Cmax stands for the maximum level reached in the sampled fluid or tissue. One may read the Tmax as the time from dosing to the highest level. In general, AUC refers to the area under the concentration-time curve, a measure of exposure.
